Experimental data taken from ChEMBL document CHEMBL1127962, “Investigation of the effects of synthetic, non-cytotoxic immunophilin inhibitors on MDR” (1994).

What was measured:
[1] = target: Peptidyl-prolyl cis-trans isomerase FKBP1A (Homo sapiens) (UniProt P62942); assay: In vitro inhibition of non-cytotoxic immunophilin FK506 binding protein activity
KB = assay: In vitro reversal of multidrug resistance (MDR) in human carcinoma cell line; assay type: functional

Peptidyl-prolyl cis-trans isomerase FKBP1A (Homo sapiens), sequence (P62942 whole entry): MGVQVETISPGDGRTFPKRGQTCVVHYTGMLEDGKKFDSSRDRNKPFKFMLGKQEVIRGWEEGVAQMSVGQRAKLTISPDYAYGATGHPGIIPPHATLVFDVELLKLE

SMILES | Activity [1] [µM] | Activity (KB) [µM]
C#C[C@@H](NC(=O)[C@H](Cc1ccccc1)NC(=O)C1CCCCN1CC(=O)c1cccc(OC)c1)C(C)C (some centres undefined) | 5 | 11
COc1cccc(C(=O)CN2CCCCC2C(=O)N[C@@H](Cc2ccccc2)C(=O)N[C@@H](CC(C)C)C(=O)OC(C)(C)C)c1 (some centres undefined) | 6 | 7
COC(=O)[C@H](Cc1ccccc1)NC(=O)[C@@H](NC(=O)[C@H](Cc1ccccc1)NC(=O)C1CCCCN1CC(=O)c1cccc(OC)c1)C(C)C (some centres undefined) | 1 | >50
CCC(C)C[C@H](NC(=O)C1CCCCN1CC(=O)c1cccc(OC)c1)C(=O)OC(C)(C)C (some centres undefined) | 8 | >50
C=CCOC/C=C/[C@@H](NC(=O)[C@H](Cc1ccccc1)NC(=O)C1CCCCN1CC(=O)c1cccc(OC)c1)C(C)C (some centres undefined) | 3 | 6
COc1cccc(C(=O)CN2CCCCC2C(=O)N[C@@H](Cc2ccccc2)C(=O)N[C@H](/C=C/COC(C)=O)C(C)C)c1 (some centres undefined) | 2 | >50
C[C@H](/C=C/c1ccc(C(=O)C(=O)N2CCCC2C(=O)N[C@@H](CC2CCCCC2)C(=O)OC(C)(C)C)s1)CO (some centres undefined) | > 100 | 13
CC(C)[C@H](NC(=O)[C@H](Cc1ccccc1)NC(=O)C1CCCCN1CC(=O)c1ccc2ccccc2c1)C(=O)OC(C)(C)C (some centres undefined) | 1 | 5
C[C@H](/C=C/c1ccc(C(=O)C(=O)N2CCCC2C(=O)N[C@@H](Cc2ccccc2)C(=O)OC(C)(C)C)s1)CO (some centres undefined) | 100 | >50
COc1cccc(C(=O)CN2CCCCC2C(=O)N[C@@H](Cc2ccccc2)C(=O)N[C@H](/C=C/I)C(C)C)c1 (some centres undefined) | 2 | 30
C=CCC(CC(C)C[C@H](C)C[C@H](OC)C1OC(O)(C(=O)C(=O)N2CCCCC2)[C@H](C)C[C@@H]1OC)C(=O)C[C@H](O)[C@@H](C)[C@H](OC(C)=O)C(C)CC1CC[C@@H](O)C(OC)C1 (some centres undefined) | 0.001 | 5
C[C@H](/C=C/c1ccc(C(=O)C(=O)N2CCCC2C(=O)OC(C)(C)C)s1)CO (some centres undefined) | > 100 | >50
COc1cccc(C(=O)CN2CCCCC2C(=O)N[C@@H](Cc2ccccc2)C(=O)N[C@H](/C=C/COC(=O)C(F)(F)F)C(C)C)c1 (some centres undefined) | 1 | 49
COc1cccc(C(=O)CN2CCCCC2C(=O)N[C@@H](Cc2ccccc2)C(=O)N[C@H](C(=O)OC(C)(C)C)C(C)C)c1 (some centres undefined) | 3 | 6
COC(=O)C(=O)N1CCCC1C(=O)N[C@@H](Cc1ccccc1)C(=O)OC(C)(C)C (some centres undefined) | > 50 | >50
COC(=O)[C@H](Cc1ccccc1)NC(=O)[C@@H](NC(=O)[C@H](Cc1ccccc1)NC(=O)C1CCCCN1CC(=O)c1ccc2ccccc2c1)C(C)C (some centres undefined) | 0.3 | >50
COc1cccc(C(=O)CN2CCCCC2C(=O)N[C@@H](Cc2ccccc2)C(=O)OC(C)(C)C)c1 (some centres undefined) | 3 | >50
